Entries after “also recorded” stand apart in the source; their conditions may differ.
Legend:
CL1-5 cells = assay: Dual fluorescence labeling in cells (SPAAC with CuAAC), confocal microscopy; format: cell-based; settings: CL1-5 cells with Ac4ManNAl and Ac4GlcNAz; 100 μM coumOCT, 0.1 μM AzBOCEt
Method: A dual-labeling experiment was performed using SPAAC in combination with CuAAC for the concurrent fluorescence labeling of two different metabolically incorporated glycoconjugates. Peracetylated N-acetylmannosamine (Ac4ManNAc) and peracetylated N-acetylglucosamine (Ac4GlcNAc) were employed as the control sugars. ManNAc is converted metabolically to sialic acid that is found as a terminal monosaccharide of glycoproteins and glycolipids in cell, whereas GlcNAz is an internal monosaccharide that abundant in the N- and O-linked glycans produced in the endoplasmic reticulum and Golgi. CL1-5 cells were incubated in the presence of both alkyne-containing sugar (Ac4ManNAl) and azido-containing sugar (Ac4GlcNAz) for three days. The cells were stained by SPAAC with coumOCT (for azido sugars), followed by CuAAC with AzBOCEt^6j (for alkynyl sugars), and investigated by confocal microscopy (FIG. 24).
(A) Illustration of the cell labeling experiments using Ac4ManNAl, Ac4GlcNAz, 101 and AzBOCEt. CL1-5 cells were incubated with 100 μM of Ac4ManNAl and Ac4GlcNAz or control sugars (Ac4ManNAc and Ac4GlcNAc) for 3 days, which were treated with 100 μM of probe 101 for 0.5 h under SPAAC conditions, and then incubated with 0.1 μM of AzBOCEt for 1 h under CuAAC conditions. (B) Dual fluorescence imaging in CL1-5 cells. […]

[1] = Absorption and fluorescence spectroscopy under simulated physiological conditions; format: physicochemical; settings: for Absorption (λmax, nm) / Stokes shift / Emission (λmax, nm) / ε (M^−1cm^−1), extinction coefficient / Φf, fluorescence quantum yield: PBS buffer containing 10% DMSO, pH 7.4; for Emission (λmax, nm): excitation at 330 nm; for ε (M^−1cm^−1), extinction coefficient: measured at 330 nm; for Φf, fluorescence quantum yield: quinine sulfate (Φf = 0.54 ± 0.03) as standard; for increase in quantum yield compared to unreacted 101: triazole product vs 101
Method: Formation of triazoles 111 and 112 were accompanied by a significant increase in fluorescence intensity with a large Stokes shift into a standard range for coumarin emission (FIG. 16a).
FIG. 16 describes (a) Absorption and Fluorescence emission spectra (λex=330 nm) of 101 (black), 111 (blue) and 112 (red) (45 μM, PBS buffer containing 10% DMSO, pH 7.4). (b) Time course of normalized fluorescence intensity at 435 nm (λex=330 nm) for the ligation reaction of 101 (30 μM) with N-azidoacetylmannosamine (30 μM) in PBS buffer containing 10% DMSO.

[2] = Stability in presence of 3-mercaptopropionic acid by 1H-NMR; format: physicochemical; settings: 25 mM in CDCl3 with 3-mercaptopropionic acid (32 mM), 25° C., 24 h
Method: A potential problematic side reaction of cyclooctynes is the addition with proteinic or endogenous thiols to the corresponding vinyl sulfides. To test whether potential non-specific stainings of 101 and the corresponding triazole 111 may occur due to additions of the SH groups to the triple bond or double bond by proteinic or endogenous thiols, the experiment was performed by incubation of 101 and 111 with 3-mercaptopropionic acid in CDCl3 (FIGS. 25 and 26).
A solution of compound 101 and compound 111 (25 mM in CDCl3) was incubated with a solution of 3-mercaptopropionic acid (32 mM in CDCl3) at room temperature (25° C.).
FIG. 25 show ^1H-NMR spectrum in CDCl3 of compound 101 and 3-mercaptopropionic acid alone, and ^1H-NMR spectrum of compound 101 was treated with 3-mercaptopropionic acid at 25° C. for 0 h, 2 h and 24 h.

SMILES | localization of labeled glycoconjugates (CL1-5 cells) | Absorption (λmax, nm) [1] [nm] | Stokes shift [1] [cm⁻¹] | Emission (λmax, nm) [1] [nm] | ε (M^−1cm^−1), extinction coefficient [1] [M⁻¹ cm⁻¹] | Φf, fluorescence quantum yield [1] | increase in quantum yield compared to unreacted 101 [1] [fold] | thiol-yne or thiol-ene addition / stability in the presence of thiols [2]
CCOC(=O)C1=C(C)C2=C(c3cc(N=[N+]=[N-])ccc3OC)c3c(C)c(C(=O)OCC)c(C)n3[B-](F)(F)[N+]2=C1C [Az10, 8-(5-Azido-2-methoxyphenyl)-2,6-diethoxycarbonyl-4,4-difluoro-1,3,5,7-tetramethyl-4-bora-3a,4a-diaza-s-indacene] | observed clearly on the cell surface and partially in the cytosol |  |  |  |  |  |  | 
O=c1ccc2cc3c(cc2o1)-c1nnn(Cc2ccccc2)c1CCCC3 [Compound 111, 10-Benzyl-6,7,8,9-tetrahydro-cyclooctatriazolo[5,4-g]chromen-2(2H)-one] |  | 328 | 7500 | 435 | 12200 | 0.23 | 20 | inactive; also recorded: high stability
O=C(Cn1nnc2c1CCCCc1cc3ccc(=O)oc3cc1-2)NC1C(O)OC(CO)[C@@H](O)C1O (stereo partly drawn) [Compound 112, N-[2-(11-Oxo-4,6,7,11-tetrahydrochromeno[7′,6′:3,4]cycloocta[1,2-d][1,2,3]triazol-3(5H)-yl)]acetamido-2-deoxy-α,β-D-mannopyranose] |  | 330 | 7320 | 435 | 10800 | 0.21 | 20 | 

Reference: patent US10119972B2, “Reactive labelling compounds and uses thereof” (Academia Sinica, priority 2014, dated 2018)
